Test results reported in patent US8088802B2, “N-phenylarylsulfonamide compound, pharmaceutical composition comprising the compound as active ingredient, synthetic intermediate for the compound and process for its preparation” (Ono Pharmaceutical Co., Ltd., priority 2001, dated 2012).
Structures can show the parent of a compound that is named as a salt.

Experiments:
[1] = Stability measured on HPLC (Comparison Example 1); format: physicochemical; details: for Stability (in words): comment on Table 4
Experimental: A Comparison of the Stability of 4-methyl-2-thiazolylsulfonyl chloride with that of the Compound Prepared in Examples 8 and 9
The solution prepared in Reference Example 1 was concentrated under reduced pressure to give 4-methyl-2-thiazolylsulfonyl chloride. The stability of this compound and the compounds prepared in Examples 8 and 9 was measured on HPLC. The conditions of HPLC were as follows.
Column: YMC-Pack ODS-AM-302(4.6 mm*150 mm)
Eluting solvent: MeCN/3 mM tetra-n-butylammonium phosphate=40/60

mouse EP1 [2] = target: T1, mouse EP1 (Mus musculus, UniProt P35375); test: Receptor antagonism using cells expressing EP1 in the presence of BSA (intracellular calcium); format: cell-based; design: expressed in transfected cells; details: inhibition of PGE2 (100 nM)-induced increase of intracellular calcium; assay buffer with 1% (w/v) BSA
T1 sequence (P35375 1-405): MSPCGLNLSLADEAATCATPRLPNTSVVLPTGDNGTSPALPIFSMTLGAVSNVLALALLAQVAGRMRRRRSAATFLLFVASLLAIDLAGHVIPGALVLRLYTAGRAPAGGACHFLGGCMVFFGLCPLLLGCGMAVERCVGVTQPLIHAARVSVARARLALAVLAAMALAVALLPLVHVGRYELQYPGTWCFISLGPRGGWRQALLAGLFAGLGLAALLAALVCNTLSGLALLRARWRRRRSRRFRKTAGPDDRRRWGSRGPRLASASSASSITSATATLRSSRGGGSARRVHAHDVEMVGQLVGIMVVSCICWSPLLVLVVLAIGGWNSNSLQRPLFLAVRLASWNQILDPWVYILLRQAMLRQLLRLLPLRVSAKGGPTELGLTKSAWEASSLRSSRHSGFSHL
Experimental: (ii) Experimental Measurement of the Activity of Receptor Antagonism Using Cells Expressing Prostanoid Receptor Subtype EP1 in the Presence of BSA (Bovine Serum Albumin)
The cells expressing mouse EP1 receptor were seeded at 1×10^4 cells/well in 96 well plates and cultured for 2 days with 10% FBS (fetal bovine serum)/minimum essential medium Eagle alpha modification (αMEM) in the incubator (37° C., 5% CO2). The cells in each well were rinsed with phosphate buffer (PBS(−)), and load buffer was added. After incubation for 1 hour, the load buffer was discarded. After the addition of the assay buffer to each well, the cells were incubated in a dark place at room temperature for 1 hour. After the addition of a compound of the present invention (10 μl) and PGE2 (10 μl) which were prepared with assay buffer, intracellular calcium concentration was measured with Fluorescence drug screening system (FDSS-4000, Hamamatsu Photonics). A pair of fluorescence intensities emitted 500 nm by an excitation wavelength of each 340 nm and 380 nm was measured.
The EP1 antagonist activity was estimated as percent inhibition of the increase of intracellular calcium concentration induced by PGE2 (100 nM).
Load buffer: 10% FBS/αMEM containing 5 μM of Fura 2/AM, 20 μM of indomethacin, 2.5 mM of probenecid
Assay buffer: Hank's balanced salt solution (HBSS) containing 1% (w/v) BSA, 2 μM of indomethacin, 2.5 mM of probenecid and 10 mM of HEPES-NaOH

mouse EP1 [3] = target: T1, mouse EP1; test: Binding assay using expression cell of prostanoid receptor subtype (3H-PGE2 competition, membrane fraction); design: expressed in transfected cells; host or cells: CHO cells, membrane fraction; details: competition of 3H-PGE2 (2.5 nM) binding, CHO cell membrane fraction
Experimental: (i) Binding Assay Using Expression Cell of Prostanoid Receptor Subtype
The preparation of membrane fraction was carried out according to the method of Sugimoto et al. (J. Biol. Chem., 267, 6463-6466 (1992)), using expression CHO cell of prostanoid receptor subtype (mouse EP1, EP2, EP3α or EP4).
The standard assay mixture containing membrane fraction (0.5 mg/ml) and ^3H-PGE2 in a final volume of 200 μl was incubated for 1 hour at room temperature. The reaction was terminated by addition of ice-cold buffer (3 ml). The mixture was rapidly filtered through a glass filter (GF/B). The radioactivity associated with the filter was measured by liquid scintillation counting.
Kd and Bmax values were determined from Scatchard plots (Ann. N.Y. Acad. Sci., 51, 660 (1949)). Non-specific binding was calculated as the binding in the presence of an excess (2.5 μM) of unlabeled PGE2. In the experiment for competition of specific ^3H-PGE2 binding by the compound of the present invention, ^3H-PGE2 (2.5 nM) and the compound of the present invention were added. The following buffer was used in all reaction.
Buffer: potassium phosphate (pH 6.0, 10 mM), EDTA (1 mM), MgCl2 (10 mM) and NaCl (0.1 M).
The dissociation constant Ki (μM) of each compound was calculated by the following equation. Ki=IC50/(1+([C]/Kd))
wherein [C] is concentration of ^3H-PGE2 used in the reaction

EP1 receptor = test: Inhibition of sulprostone-induced increase of intravesical pressure of bladder in rats; format: in vivo, rat; details: female Wistar rats, 1 mg/kg intraduodenal, 40 minutes after administration
Text: (iii) Experiment to Assess the Inhibition of Sulprostone-Induced Increase of Intravesical Pressure of Bladder in Rats.
Female rats (Wistar) were anesthetized by urethane and their both ureters were ligated and cut off at the kidney side. The urinary bladder was incised its top and catheter was inserted. The other end of catheter was connected to the pressure transducer and the infusion pump. Repeated micturition reflex, which was induced by the continuous infusion of citrate buffer (pH 3.5) into the bladder, was recorded. The increase of micturition pressure was elicited by the subcutaneous injection of diclofenac (5 mg/kg) and sulprostone (300 μg/kg). Since such an increasing effect was not observed by the treatment of EP3 agonist, it was considered that this increase was caused by the activation of EP1 receptor. The inhibitory effects of the compound of the present invention on this increase of intravesical pressure were measured for 60 minutes after the intraduodenal administration (2 ml/kg).

Row | Structure (SMILES) | IC50 (mouse EP1 [2]) [nM] | Ki (mouse EP1 [3]) [nM] | further results
1 | Cc1csc(S(=O)(=O)Cl)n1 [4-methyl-2-thiazolylsulfonyl chloride, 4-methyl-2-thiazolylsulfonylchloride] | – | – | Residual Rate (%) ([1]; 1 °C, 24 hour): 102.0%; Residual Rate (%) ([1]; 1 °C, 48 hour): 96.3%; Residual Rate (%) ([1]; 1 °C, 72 hour): 98.6%; Residual Rate (%) ([1]; 20 °C, 24 hour): 71.4%; Residual Rate (%) ([1]; 20 °C, 48 hour): 20.6%; Residual Rate (%) ([1]; 20 °C, 66 hour): 2.0%; Residual Rate (%) ([1]; 40 °C, 16 hour): 60.9%; Residual Rate (%) ([1]; 40 °C, 24 hour): 7.6%; Stability (in words) [1]: stable at low temperature, but when subjected to room temperature or higher, it is hard to assure the stability
2 | Cc1ccc(S(=O)(=O)N(CC(C)C)c2cc(C)c(C)cc2OCc2ccc(C(=O)O)cc2)o1 [Example 2 (6), 4-[2-[N-isobutyl-N-(5-methyl-2-furylsulfonyl)amino]-4,5-dimethylphenoxymethyl]benzoic acid] | 7.2 | 0.32 | –
3 | Cc1ccc(S(=O)(=O)N(CC(C)C)c2cc3c(cc2OCc2ccc(/C=C/C(=O)O)cc2)CCC3)o1 [Example 2 (32), 4-[6-[N-isobutyl-N-(5-methyl-2-furylsulfonyl)amino]indan-5-yloxymethyl]cinnamic acid] | 21 | 7.9 | –
4 | Cc1ccc(S(=O)(=O)N(CC(C)C)c2cc3c(cc2OCc2ccc(C(=O)O)cc2C)CCC3)o1 [Example 2 (33), 3-methyl-4-[6-[N-isobutyl-N-(5-methyl-2-furylsulfonyl)amino]indan-5-yloxymethyl]benzoic acid] | 4.1 | 6.6 | Inhibition (%) (40 minutes later) (EP1 receptor): 79 ± 11%
5 | Cc1csc(S(=O)(=O)N(CC(C)C)c2ccc(C(F)(F)F)cc2OCc2ccc(/C=C/C(=O)O)cc2)n1 [Example 2 (41), 4-[2-[N-isobutyl-N-(4-methyl-2-thiazolylsulfonyl)amino]-5-trifluoromethylphenoxymethyl]cinnamic acid] | 25 | 1.5 | –
6 | Cc1cc(OCc2ccc(C(=O)O)cc2C)c(N(CC(C)C)S(=O)(=O)c2ccccn2)cc1C [Example 2 (87), 3-methyl-4-[2-[N-isobutyl-N-(2-pyridylsulfonyl)amino]-4,5-dimethylphenoxymethyl]benzoic acid] | 7.3 | 1.4 | –
7 | Cc1cc(OCc2ccc(/C=C/C(=O)O)cc2C)c(N(CC(C)C)S(=O)(=O)c2cccnc2)cc1C [Example 2 (94), 3-methyl-4-[2-[N-isobutyl-N-(3-pyridylsulfonyl)amino]-4,5-dimethylphenoxymethyl]cinnamic acid] | 9.2 | 3.9 | –
8 | Cc1ccc(S(=O)(=O)N(CC(C)C)c2cc(C)c(C)cc2OCc2ccc(C(=O)O)cc2C)o1 [Example 2, 3-methyl-4-[2-[N-isobutyl-N-(5-methyl-2-furylsulfonyl)amino]-4,5-dimethylphenoxymethyl]benzoic acid] | 7.8 | 4.2 | Inhibition (%) (40 minutes later) (EP1 receptor): 68 ± 1%
9 | Cc1csc(S(=O)(=O)N(c2cc(C)c(Cl)cc2OCc2ccc(-c3nnn[nH]3)cc2C)C(C)C)n1 [Example 3 (11), N-[4-chloro-5-methyl-2-[2-methyl-4-(5-tetrazolyl)phenylmethyloxy]phenyl]-N-isopropyl-(4-methyl-2-thiazolyl)sulfonylamide] | 4.9 | 2.3 | –
10 | Cc1cc(OCc2ccc(-c3nnn[nH]3)cc2Cl)c(N(C(C)C)S(=O)(=O)c2cccnc2)cc1C [Example 3 (30), N-[4,5-dimethyl-2-[2-chloro-4-(5-tetrazolyl)phenylmethyloxy]phenyl]-N-isopropyl-3-pyridylsulfonylamide] | 3.7 | 0.8 | –
11 | Cc1csc(S(=O)(=O)N(c2cc(C)c(C)cc2OCc2ccc(-c3noc(=O)[nH]3)cc2)C(C)C)n1 [Example 4 (14), N-[4,5-dimethyl-2-[4-(5-oxo-1,2,4-oxadiazol-3-yl)phenylmethyloxy]phenyl]-N-isopropyl-(4-methyl-2-thiazolyl)sulfonylamide] | 7.1 | 0.8 | –
12 | Cc1csc(S(=O)(=O)On2nnc3ccccc32)n1 [Example 8, 1-(4-methylthiazol-2-ylsulfonyloxy)-1,2,3-benzotriazole] | – | – | Residual Rate (%) ([1]; 40 °C, 24 hour): 99.8%; Stability (in words) [1]: stable even at high temperature
13 | Cc1csc(S(=O)(=O)n2cc[n+](C)c2)n1 [Example 9, 1-(4-methylthiazol-2-ylsulfonyl)-3-methylimidazol-1-onium hydrogen chloride salt] | – | – | Residual Rate (%) ([1]; 40 °C, 24 hour): 99.6%; Stability (in words) [1]: stable even at high temperature
14 | Cc1ccc(N(CC(C)C)S(=O)(=O)c2ccco2)c(OCc2ccc(C(=O)O)cc2)c1 [Example 18 (93), reference compound] | 200 | 0.8 | –
15 | Cc1ccc(OCc2ccc(C(=O)O)cc2)c(N(CC(C)C)S(=O)(=O)c2ccco2)c1 [Example 18 (113), reference compound] | 470 | 5.5 | –
16 | CC(C)CN(c1ccc(Cl)cc1OCc1ccc(C(=O)O)cc1)S(=O)(=O)c1ccco1 [Example 18 (121), reference compound] | 260 | 1 | –
17 | CC(C)CN(c1cc(Cl)ccc1OCc1ccc(C(=O)O)cc1)S(=O)(=O)c1ccco1 [Example 18 (125), reference compound] | 1340 | 1.3 | –
